# In patent US20100298305A1, “TIZANIDINE FOR THE TREATMENT OF POST-TRAUMATIC STRESS DISORDER AND NIGHTMARES” (The United States Government, as represented by the …, priority 2008, published 2010):
# Like-named read-outs stand apart in the source and are kept apart here.
# Tests used:
# [1] = system: PTSD; settings: average dose 2.4 mg; military veterans with PTSD taking or not taking antidepressant; cited from earlier work
# [2] = system: PTSD; settings: Case 10
# Source text: Given the prior history of ADHD, methylphenidate was cautiously added to the venlafaxine. […] They were referred to a specialty inpatient program for PTSD. During the inpatient program, the antidepressant was switched from venlafaxine to duloxetine.
# [3] = fraction of the potency of clonidine; cited from earlier work
# [4] = system: PTSD; test: Example 1 case summaries 1-6: tizanidine as adjunctive treatment for PTSD, anxiety, depression, psychosis or impaired cognition; format: in vivo, human
# Description: Treatment was begun with sertraline 100 mg per day for anxiety and nortriptyline 25 mg at bedtime for headaches. […] Treatment with tizanidine was started and the dose was increased to 8 mg at bedtime.
# Tizanidine was started and titrated up to 4 mg at bedtime along with aripiprazole (15 mg at bedtime) and clonazepam (0.5 mg daily).
# These medications included sertraline (250 mg daily), divalproex sodium (2500 mg daily), quetiapine (100 mg twice daily and 400 mg at bedtime), amitriptyline (25 mg at bedtime), and tramadol (50 mg as needed for severe headache). […] A trial of tizanidine was started and the dose was titrated up to 8 mg at bedtime.
# Pharmacologic Treatment and Response: While on the psychiatry unit, they were treated with sertraline for PTSD and nortriptyline for headaches and depression. […] They were started on tizanidine 4 mg at bedtime.
# After approximately one year, subject agreed to a trial of tizanidine as an addition to sertraline. […] They agreed to increase the dose to 4 mg at bedtime and follow-up in four weeks. […] An atypical antipsychotic medication, aripiprazole, was added to their medications.
# Treatment with tizanidine 4 mg at bedtime was added to the existing sertraline.
# [5] = cited from earlier work
# [6] = system: PTSD; test: Example 2 case summaries 7-9: switching from once to twice-daily dosing of tizanidine
# Description: They were continued on aripiprazole, quetiapine, sertraline, and trazodone. Treatment with tizanidine was started for the nightmares and poor sleep.
# They were switched from tizanidine 8 mg at bedtime to tizanidine 6 mg in the morning and 8 mg at bedtime. […] They continued on the sertraline, divalproex, and trazodone for initial insomnia. The tizanidine was switched to 4 mg in the morning and 4 mg at bedtime.
# Subject was started on tizanidine up to 8 mg at bedtime for nightmares. They also were issued a device to assist with memory problems. A rating scale for common cognitive problems was administered by speech pathology prior to issuing them a personal digital assistant as a memory assist device.
# They continued to take sertraline and tizanidine. At a psychology evaluation session, subject completed two self-report instruments of PTSD and depressive symptoms to establish a baseline indication of symptom severity. […] Subject was then switched from tizanidine 8 mg at bedtime to 4 mg twice daily.
# After approximately one year of being followed in the psychiatry clinic, they became more willing to try medication and agreed to a trial of tizanidine.
# [7] = tizanidine 4 mg twice daily with methylphenidate, after four weeks
# [8] = Case 2, tizanidine 4 mg at bedtime with aripiprazole 15 mg and clonazepam 0.5 mg, after two months
# [9] = Case 2, tizanidine 8 mg at bedtime, other medications stopped, two months later
# [10] = Case 3, tizanidine 8 mg at bedtime, after four weeks
# [11] = Case 4, tizanidine 4 mg at bedtime
# [12] = Case 5, tizanidine 2 mg at bedtime added to sertraline, several weeks
# [13] = Case 5, tizanidine 4 mg at bedtime with sertraline, four weeks
# [14] = Case 5, tizanidine 4 mg at bedtime, aripiprazole added, eight weeks later
# [15] = Case 5, tizanidine 8 mg at bedtime, not taking sertraline and aripiprazole, eight weeks
# [16] = Case 5, tizanidine 8 mg at bedtime, primary care appointment one month later
# [17] = Case 6, tizanidine 4 mg at bedtime added to sertraline, approximately four weeks
# [18] = Case 7, switched from tizanidine 8 mg at bedtime to 6 mg in the morning and 8 mg at bedtime, two months later
# [19] = Case 7, tizanidine 4 mg twice daily, one month after switch
# [20] = Case 7, tizanidine 8 mg at bedtime, four weeks
# [21] = Case 8, tizanidine 4 mg twice daily, two weeks after switch
# [22] = Case 9, trial of tizanidine, two months later
structure (smiles),measurement,setting,value
N=C(N)NC(=O)Cc1c(Cl)cccc1Cl [guanfacine],relieving signs or symptoms of PTSD compared to placebo,[1],not effective compared to placebo
Clc1ccc2nsnc2c1NC1=NCCN1 [tizanidine],nightmares,[2]; [7],absence of nightmares
same,overall helpfulness,[2]; [7],extremely helpful
same,sleep,[2]; [7],greatly improved sleep
same,daytime anxiety,[2]; when taking tizanidine 4 mg twice daily,less daytime anxiety
same,potency in lowering blood pressure relative to clonidine,[3],one-tenth to one-fiftieth
same,daytime anxiety,"[4]; Case 1, tizanidine 8 mg at bedtime, after two weeks",less daytime anxiety
same,reduction in nightmares,"[4]; Case 1, tizanidine 8 mg at bedtime, after two weeks, subject report",~50%
same,alcohol use,[4]; [8],one to two
same,mood and energy,[4]; [8],somewhat better
same,"other signs and symptoms of Major Depression, PTSD, and Psychosis NOS",[4]; [8],unchanged
same,overall condition,[4]; [8],mildly improved
same,panic attacks,[4]; [8],had not experienced any panic attacks
same,overall condition,"[4]; Case 2, tizanidine 8 mg at bedtime, other medications stopped by subject, two months later",markedly improved
same,alcohol use,"[4]; Case 2, tizanidine 8 mg at bedtime, other medications stopped, preceding two months",had not drunk any alcohol
same,daytime anxiety,[4]; [9],less anxious during the day
same,energy,[4]; [9],improved
same,hallucinations,[4]; [9],had stopped
same,intrusive thoughts of combat or the Iraq war,[4]; [9],less frequent
same,nightmares,[4]; [9],much less frequent
same,panic attacks,[4]; [9],able to leave their house without panic attacks
same,sleep,[4]; [9],improved
same,combat-related nightmares,[4]; [10],complete absence of combat-related nightmares
same,concentration and attention during the day,[4]; [10],easier to concentrate
same,daytime anxiety,[4]; [10],substantial decrease in daytime anxiety
same,nightmares overall,[4]; [10],substantial reduction in nightmares overall
same,sleep,[4]; [10],significantly improved
same,"tremor, at rest and with action",[4]; [10],improved
same,hallucinations,"[4]; Case 3, tizanidine 8 mg at bedtime, after four weeks, quetiapine dose decreased by subject",greatly reduced
same,irritability and anxiety during the day,[4]; [11],less irritable and less anxious
same,nightmares,[4]; [11],reduced their nightmares
same,quality of sleep,[4]; [11],improved the quality of their sleep
same,nightmares,"[4]; Case 4, tizanidine 4 mg at bedtime, approximately three weeks after starting",somewhat improved
same,nightmares,[4]; [12],no change to nightmares
same,side effects or other adverse effects,[4]; [12],no side effects or other adverse effects
same,nightmares frequency,[4]; [13],3-4 times per week
same,overall condition,[4]; [13],not doing well
same,panic attacks frequency,[4]; [13],2-3 times per week
same,alcohol use,[4]; [14],one to two
same,mood and energy level,[4]; [14],an improvement in their mood and energy level
same,overall improvement,[4]; [14],limited improvement
same,remainder of PTSD and depressive symptoms,[4]; [14],unchanged
same,panic attacks,"[4]; Case 5, tizanidine 4 mg at bedtime, aripiprazole added, eight weeks later, for several weeks",free from panic attacks
same,side-effects,"[4]; Case 5, tizanidine 4 mg at bedtime, eight weeks later",no side-effects
same,alcohol consumption,[4]; [15],decreased to less than once per month
same,anxiety and energy during the day,[4]; [15],less anxious and more energetic
same,nightmares,[4]; [15],improved
same,overall improvement,[4]; [15],substantial improvement
same,panic attacks,[4]; [15],continued to be absent
same,anxiety,[4]; [16],less anxiety
same,depression,[4]; [16],improved depression
same,hallucinations,[4]; [16],denied having any hallucinations
same,nightmares,[4]; [16],decreased nightmares
same,feeling rested the next day,[4]; [17],more rested the next day
same,night sweats,[4]; [17],fewer night sweats
same,nightmares,[4]; [17],reduction in their nightmares
same,overall sleep quality,[4]; [17],improved
same,sleep time,[4]; [17],had not increased their sleep time
same,peak serum levels,[5]; single 4 mg capsule,~4.0 ng/mL
same,peak serum levels,[5]; single 4 mg tablet,about 2.7 ng/ml
same,daytime anxiety,[6]; [18],greater reduction to their daytime anxiety
same,nightmares and sleep quality,[6]; [18],no change to the beneficial impact
same,nightmares,"[6]; Case 7, tizanidine 4 mg twice daily with sertraline, divalproex, trazodone, one month after switch",continued to have no nightmares
same,daytime anxiety,[6]; [19],no change to daytime anxiety
same,daytime cognition,[6]; [19],no change in daytime cognition
same,desire to smoke cigarettes,[6]; [19],definite reduction in their desire to smoke
same,mood,[6]; [19],no changes in mood
same,sleep,[6]; [19],continued to have restful sleep
same,nightmares overall,"[6]; Case 7, tizanidine 8 mg at bedtime with aripiprazole, quetiapine, sertraline, trazodone, four weeks",greatly reduced nightmares overall
same,anxiety during the day,[6]; [20],significantly less anxiety during the day
same,combat-related nightmares,[6]; [20],complete absence of combat-related nightmares
same,hallucinations,[6]; [20],fewer hallucinations
same,tremor,[6]; [20],improved tremor
same,sleep,"[6]; Case 8, switched from tizanidine 8 mg at bedtime to 4 mg twice daily, two weeks later",no change in sleep
same,"energy (new onset, gradually improving)",[6]; [21],mild decrease in energy
same,hypervigilance during the day,[6]; [21],reduced hypervigilance during the day
same,irritability during the day,[6]; [21],less irritability during the day
same,nightmares,[6]; [21],eliminates nightmares
same,feeling better the next day,"[6]; Case 8, tizanidine 8 mg at bedtime with sertraline",significant improvement
same,cognitive function,"[6]; Case 8, tizanidine up to 8 mg at bedtime with sertraline, memory assist device also issued, following weeks",improved
same,twice-daily compared to once-daily dosing,"[6]; Case 9, tizanidine 4 mg twice daily versus 8 mg at bedtime, same total milligrams",clear superiority of twice-daily
same,cognitive symptoms,[6]; [22],unchanged
same,headaches,[6]; [22],much less intense
same,mood and energy,[6]; [22],improved
same,sleep,[6]; [22],better
same,anxiety,"[6]; Case 9, trial of tizanidine, two months later, still startled easily and hypervigilant",less anxiety
